Patent US20240109917A1 (ACTELION PHARMACEUTICALS LTD, priority 2020, published 2024)

Tests used:
PDGFRβ = PDGFRβ (Rattus norvegicus (Rat), UniProt Q05030); test: PDGFRβ Cellular Assay (PDGFRb P-Y751 HTRF in A10 cells stimulated with PDGF-BB); assay type: cell-based; conditions: read-out: PDGFR Cellular IC50
Summary of the method: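 Phospho-Y751 PDGFRβ was measured by HTRF in lysates of A10 rat cells. Cells received compound for 3 hours before PDGF-BB stimulation (100 ng/mL working stock).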

[1] = biological target: Tb-labeled inactive PDGFRβ (Homo sapiens (Human), UniProt P09619); test: PDGFRβ LanthaScreen Assay; assay type: binding; conditions: read-out: PDGFR Lantha IC50
[2] = biological target: His6-TEV-PDGFRβ (557-1016) (Homo sapiens (Human), UniProt P09619); test: PDGFRβ HTRF Assay; assay type: biochemical; conditions: read-out: PDGFR HTRF IC50
Summary of the method: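 HTRF KinEASE-TK readout (665/620 nm ratio) of TK-biotin substrate phosphorylation by His-tagged PDGFRβ kinase domain. Enzyme and inhibitor preincubated 30 min, then ATP/substrate added for 3 h at room temperature before 60 min EDTA quench/detection.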

Chain of His6-TEV-PDGFRβ (557-1016) (P09619 557-1016): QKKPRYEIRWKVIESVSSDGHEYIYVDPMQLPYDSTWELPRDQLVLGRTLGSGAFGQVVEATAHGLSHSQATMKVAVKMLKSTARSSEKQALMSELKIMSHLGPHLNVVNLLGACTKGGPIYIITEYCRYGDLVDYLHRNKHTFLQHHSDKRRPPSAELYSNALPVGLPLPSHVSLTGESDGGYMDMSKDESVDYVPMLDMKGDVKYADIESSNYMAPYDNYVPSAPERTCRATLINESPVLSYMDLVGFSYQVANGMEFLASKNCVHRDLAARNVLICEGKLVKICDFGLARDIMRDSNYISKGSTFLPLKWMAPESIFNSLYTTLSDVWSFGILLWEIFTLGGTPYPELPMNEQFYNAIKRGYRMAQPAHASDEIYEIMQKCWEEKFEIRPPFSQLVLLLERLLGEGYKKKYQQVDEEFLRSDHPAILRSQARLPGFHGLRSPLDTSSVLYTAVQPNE
Chain of Tb-labeled inactive PDGFRβ (P09619 33-1106): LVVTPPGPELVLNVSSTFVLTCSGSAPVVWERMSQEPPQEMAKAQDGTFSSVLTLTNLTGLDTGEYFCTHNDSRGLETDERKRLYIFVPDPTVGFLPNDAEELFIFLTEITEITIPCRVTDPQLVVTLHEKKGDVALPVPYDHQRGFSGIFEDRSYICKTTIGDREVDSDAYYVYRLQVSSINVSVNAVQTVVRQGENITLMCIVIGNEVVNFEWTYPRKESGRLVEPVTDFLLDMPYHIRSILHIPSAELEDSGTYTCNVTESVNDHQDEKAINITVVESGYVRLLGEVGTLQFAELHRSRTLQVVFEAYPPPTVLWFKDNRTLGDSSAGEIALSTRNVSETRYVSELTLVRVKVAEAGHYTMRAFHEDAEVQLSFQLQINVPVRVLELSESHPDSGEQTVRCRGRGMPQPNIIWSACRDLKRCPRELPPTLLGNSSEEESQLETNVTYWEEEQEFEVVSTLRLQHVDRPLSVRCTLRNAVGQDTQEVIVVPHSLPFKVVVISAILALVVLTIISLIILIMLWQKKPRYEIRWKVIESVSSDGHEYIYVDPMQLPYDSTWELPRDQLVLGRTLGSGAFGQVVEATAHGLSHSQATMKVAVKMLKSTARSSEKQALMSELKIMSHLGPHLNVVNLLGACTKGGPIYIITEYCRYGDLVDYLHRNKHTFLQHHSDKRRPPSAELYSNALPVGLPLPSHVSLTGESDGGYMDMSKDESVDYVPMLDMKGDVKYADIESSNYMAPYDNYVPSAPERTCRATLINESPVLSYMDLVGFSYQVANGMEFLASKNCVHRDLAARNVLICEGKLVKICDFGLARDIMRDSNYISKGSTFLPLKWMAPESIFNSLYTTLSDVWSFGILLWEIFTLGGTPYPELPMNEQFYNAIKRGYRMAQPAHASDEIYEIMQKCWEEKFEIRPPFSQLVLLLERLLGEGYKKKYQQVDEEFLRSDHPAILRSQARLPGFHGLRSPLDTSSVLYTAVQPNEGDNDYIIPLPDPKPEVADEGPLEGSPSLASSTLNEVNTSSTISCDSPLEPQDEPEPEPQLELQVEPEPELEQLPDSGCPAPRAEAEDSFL
Chain of PDGFRβ (Q05030 32-1097): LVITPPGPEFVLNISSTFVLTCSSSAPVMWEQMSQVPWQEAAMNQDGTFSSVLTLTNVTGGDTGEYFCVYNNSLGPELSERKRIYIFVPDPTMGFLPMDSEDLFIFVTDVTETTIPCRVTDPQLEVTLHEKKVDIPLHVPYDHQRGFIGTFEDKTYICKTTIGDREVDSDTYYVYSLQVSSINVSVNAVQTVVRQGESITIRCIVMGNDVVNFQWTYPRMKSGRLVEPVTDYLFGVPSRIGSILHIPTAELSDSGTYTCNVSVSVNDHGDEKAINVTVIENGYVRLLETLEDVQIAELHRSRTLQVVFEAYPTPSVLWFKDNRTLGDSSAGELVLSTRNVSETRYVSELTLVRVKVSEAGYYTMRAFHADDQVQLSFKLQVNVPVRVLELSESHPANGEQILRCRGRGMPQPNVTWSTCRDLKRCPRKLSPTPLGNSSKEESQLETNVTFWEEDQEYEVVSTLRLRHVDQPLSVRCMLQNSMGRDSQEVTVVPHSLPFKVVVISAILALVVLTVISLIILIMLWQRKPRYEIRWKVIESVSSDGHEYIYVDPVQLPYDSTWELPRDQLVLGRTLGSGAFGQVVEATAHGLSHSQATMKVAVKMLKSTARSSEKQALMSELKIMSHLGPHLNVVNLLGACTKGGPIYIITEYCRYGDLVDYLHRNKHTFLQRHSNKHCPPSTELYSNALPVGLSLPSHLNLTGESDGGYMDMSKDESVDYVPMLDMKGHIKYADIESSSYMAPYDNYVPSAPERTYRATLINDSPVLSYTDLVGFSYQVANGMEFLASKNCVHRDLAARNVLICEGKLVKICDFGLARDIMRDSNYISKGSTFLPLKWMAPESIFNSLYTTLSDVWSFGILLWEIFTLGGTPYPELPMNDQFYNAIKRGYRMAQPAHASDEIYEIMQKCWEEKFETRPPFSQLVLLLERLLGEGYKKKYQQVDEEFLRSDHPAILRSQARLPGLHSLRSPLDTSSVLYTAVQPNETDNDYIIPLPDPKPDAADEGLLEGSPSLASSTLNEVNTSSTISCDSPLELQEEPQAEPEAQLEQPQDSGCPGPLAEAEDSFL

Question: `Cc1ncc(NC(=O)CN2CC(C)(C)C2)cc1NC(=O)c1cnn2cc(-c3cn(C)nc3C)sc12` [Example 430, 2-(1,3-Dimethyl-1H-pyrazol-4-yl)-N-(5-(2-(3,3-dimethylazetidin-1-yl)acetamido)-2-methylpyridin-3-yl)pyrazolo[5,1-b]thiazole-7-carboxamide] was tested. Which IC50 (PDGFRβ) did it give?
Answer: Its IC50 is 1 nM.

Question: And the IC50 [1]?
Answer: The IC50 was 1.8 nM.

Question: And the IC50 [2]?
Answer: Its IC50 is 0.2 nM.
